Assay [1] is described as follows: A Cell-Based Confirmatory Screen for Compounds that Inhibit VEEV, TC-83 (6). It counts as functional.
A short description of assay [2]: A Cell-Based Confirmatory Screen for Compounds that Inhibit VEEV, TC-83 (8). The assay is classed as functional.
Assay [3] in a line: HepG2 cell cytotoxicity, dose response, cytotoxicity control, ATP luminescence, cherry-pick, activator set 2 (AID 1053143). It counts as functional, cell-based.
The nature of assay [4]: cells.
Assay [5] has as its target T1, Apoptotic protease-activating factor 1 (Homo sapiens, UniProt O14727).
T1 sequence (O14727 whole entry): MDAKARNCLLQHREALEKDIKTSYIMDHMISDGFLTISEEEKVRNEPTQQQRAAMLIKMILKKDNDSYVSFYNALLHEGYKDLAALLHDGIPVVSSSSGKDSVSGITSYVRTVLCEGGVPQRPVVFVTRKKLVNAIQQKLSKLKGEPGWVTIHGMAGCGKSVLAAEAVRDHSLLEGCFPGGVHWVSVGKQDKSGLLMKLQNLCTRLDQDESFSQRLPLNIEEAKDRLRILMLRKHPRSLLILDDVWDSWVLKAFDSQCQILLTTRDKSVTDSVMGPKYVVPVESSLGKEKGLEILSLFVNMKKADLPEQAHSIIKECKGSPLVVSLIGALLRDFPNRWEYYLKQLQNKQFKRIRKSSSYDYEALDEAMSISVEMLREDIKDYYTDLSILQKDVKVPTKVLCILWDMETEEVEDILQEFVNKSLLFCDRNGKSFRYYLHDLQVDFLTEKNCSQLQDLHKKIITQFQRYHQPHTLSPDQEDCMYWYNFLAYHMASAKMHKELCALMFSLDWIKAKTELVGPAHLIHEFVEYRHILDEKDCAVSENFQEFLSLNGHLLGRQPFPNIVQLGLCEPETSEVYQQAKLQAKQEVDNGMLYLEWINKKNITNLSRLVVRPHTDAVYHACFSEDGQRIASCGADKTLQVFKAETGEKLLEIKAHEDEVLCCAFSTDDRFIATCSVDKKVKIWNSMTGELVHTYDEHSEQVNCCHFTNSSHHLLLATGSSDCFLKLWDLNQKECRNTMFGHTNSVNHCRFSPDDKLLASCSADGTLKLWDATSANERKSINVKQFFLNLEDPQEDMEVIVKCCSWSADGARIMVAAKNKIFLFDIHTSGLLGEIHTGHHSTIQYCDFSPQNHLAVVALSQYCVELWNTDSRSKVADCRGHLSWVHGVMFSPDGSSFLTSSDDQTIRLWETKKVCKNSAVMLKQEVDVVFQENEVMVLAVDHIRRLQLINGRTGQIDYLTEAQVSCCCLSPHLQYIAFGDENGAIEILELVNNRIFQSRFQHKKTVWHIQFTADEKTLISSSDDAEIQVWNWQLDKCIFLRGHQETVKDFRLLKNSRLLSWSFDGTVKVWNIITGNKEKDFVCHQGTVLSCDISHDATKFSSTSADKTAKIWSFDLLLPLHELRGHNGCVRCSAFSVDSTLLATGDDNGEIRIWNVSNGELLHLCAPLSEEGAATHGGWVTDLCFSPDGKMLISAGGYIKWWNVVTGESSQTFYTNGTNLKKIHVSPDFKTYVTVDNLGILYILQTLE
It counts as functional.

The subject of assay [6] is A549. Briefly: A549 cell toxicity, dose response, cytotoxicity control, plate reader, cherry-pick samples (AID 687028). It counts as functional, cell-based. The conditions noted are these: Homo sapiens.
Assay [7] addresses T2, DNA repair protein RAD52 homolog (Homo sapiens, UniProt P43351).
T2 sequence (P43351 whole entry): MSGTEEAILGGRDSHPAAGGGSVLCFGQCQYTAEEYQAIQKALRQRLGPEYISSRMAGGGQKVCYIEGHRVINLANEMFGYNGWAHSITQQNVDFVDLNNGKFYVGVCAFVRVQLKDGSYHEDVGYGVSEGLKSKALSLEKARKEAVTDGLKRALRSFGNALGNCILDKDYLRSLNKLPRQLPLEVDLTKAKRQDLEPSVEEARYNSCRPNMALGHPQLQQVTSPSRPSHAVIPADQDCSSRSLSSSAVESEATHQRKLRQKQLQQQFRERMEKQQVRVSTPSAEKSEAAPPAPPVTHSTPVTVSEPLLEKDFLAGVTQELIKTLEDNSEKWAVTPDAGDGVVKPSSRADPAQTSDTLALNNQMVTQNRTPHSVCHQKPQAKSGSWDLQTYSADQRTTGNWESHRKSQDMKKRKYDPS
The assay is classed as functional, biochemical.

For assay [8], the target named is Caspase-8 (Homo sapiens, UniProt Q14790). Description: caspase-8 inhibition counter-screen, dose response, selectivity assay for caspase-6 inhibitor project, biochemical, Z-IETD-R110 fluorescence, cherry-picked samples (AID 743294).
Chain of Caspase-8 (Q14790 217-374 limits assumed): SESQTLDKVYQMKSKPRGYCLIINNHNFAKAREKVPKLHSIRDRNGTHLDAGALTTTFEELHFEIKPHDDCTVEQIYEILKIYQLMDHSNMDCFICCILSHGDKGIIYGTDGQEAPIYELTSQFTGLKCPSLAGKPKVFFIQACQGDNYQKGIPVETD
Chain of Caspase-8 (Q14790 385-479 limits assumed): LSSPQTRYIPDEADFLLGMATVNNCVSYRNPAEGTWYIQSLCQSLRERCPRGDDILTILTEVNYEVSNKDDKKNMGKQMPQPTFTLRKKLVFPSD
In assay [9] the target is Nonstructural protein 1 (Influenza A virus, UniProt Q194T2). The assay is classed as functional, Influenza A virus (A/California/07/2009(H1N1)).
Chain of Nonstructural protein 1 (Q194T2 whole entry): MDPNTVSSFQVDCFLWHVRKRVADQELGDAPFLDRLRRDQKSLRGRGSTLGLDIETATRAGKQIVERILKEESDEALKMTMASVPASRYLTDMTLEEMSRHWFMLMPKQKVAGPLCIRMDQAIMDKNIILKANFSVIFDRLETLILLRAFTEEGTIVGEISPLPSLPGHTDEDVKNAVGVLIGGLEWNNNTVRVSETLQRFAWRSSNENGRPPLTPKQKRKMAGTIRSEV
Assay [10] is described as follows: MC4R antagonists, dose response, counter-screen for LGR2 antagonist project, cell-based, plate reader, cherry pick (AID 743444).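 Also: transfected HEK 293 cells stimulated with alpha-MSH peptide; potency of inhibitors of the alpha-MSH evoked signal.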 It counts as functional.
The nature of assay [11]: LGR2 antagonists, dose response, cell-based, HEK293, CRE-luciferase reporter, cherry pick, set 2 (AID 743343).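 Also: transfected cells were stimulated with diluted bursicon conditioned medium after compound addition.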 The assay is classed as functional.
The target in assay [12] is Caspase-9 (Homo sapiens, UniProt P55211). Briefly: caspase-9 enzyme inhibition, dose response, selectivity assay for caspase-6 inhibitor project, biochemical, fluorescence, plate reader, cherry-picked samples (AID 743293).
Chain of Caspase-9 (P55211 1-315 limits assumed): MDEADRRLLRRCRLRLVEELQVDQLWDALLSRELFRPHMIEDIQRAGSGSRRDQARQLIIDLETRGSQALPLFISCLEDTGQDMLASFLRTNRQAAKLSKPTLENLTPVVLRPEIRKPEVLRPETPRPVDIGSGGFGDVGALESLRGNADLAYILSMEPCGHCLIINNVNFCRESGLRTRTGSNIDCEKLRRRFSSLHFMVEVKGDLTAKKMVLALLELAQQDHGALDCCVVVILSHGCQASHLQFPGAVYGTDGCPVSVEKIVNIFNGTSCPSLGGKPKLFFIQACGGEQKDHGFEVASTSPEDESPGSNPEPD
Chain of Caspase-9 (P55211 331-416 limits assumed): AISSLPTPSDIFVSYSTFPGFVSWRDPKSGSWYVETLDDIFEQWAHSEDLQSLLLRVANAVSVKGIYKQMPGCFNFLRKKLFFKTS
Assay [13] is described as follows: A549 cell cytotoxicity, dose response, cytotoxicity control, plate reader, cherry-pick, antagonist series (AID 743412). The assay is classed as functional, cell-based.
In assay [14] the target is T3, Caspase-6 (Homo sapiens, UniProt P55212).
T3 sequence (P55212 whole entry): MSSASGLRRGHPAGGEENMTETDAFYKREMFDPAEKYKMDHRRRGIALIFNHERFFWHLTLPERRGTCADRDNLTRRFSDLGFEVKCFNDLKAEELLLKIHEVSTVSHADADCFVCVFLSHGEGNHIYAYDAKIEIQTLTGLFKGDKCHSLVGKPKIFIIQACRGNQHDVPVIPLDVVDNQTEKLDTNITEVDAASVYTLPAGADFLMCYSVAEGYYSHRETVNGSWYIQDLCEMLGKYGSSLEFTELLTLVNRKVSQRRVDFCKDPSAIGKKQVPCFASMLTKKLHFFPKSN
Briefly: human caspase-6 inhibitors, dose response, biochemical, VEID-R110 fluorescence, cherry-pick (AID 720632).

The target in assay [15] is Caspase-7 (Homo sapiens, UniProt P55210). Description: human caspase-7 inhibitors, dose response, selectivity assay for caspase-6 inhibitor project, biochemical, DEVD-R110 fluorescence, cherry-pick (AID 743295). The assay is classed as […].
Chain of Caspase-7 (P55210 24-198 limits assumed): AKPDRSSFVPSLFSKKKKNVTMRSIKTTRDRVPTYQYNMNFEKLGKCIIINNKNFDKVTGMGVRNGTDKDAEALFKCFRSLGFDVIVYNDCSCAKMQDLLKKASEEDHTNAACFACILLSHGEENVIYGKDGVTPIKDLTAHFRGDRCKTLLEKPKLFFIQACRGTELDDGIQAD
Chain of Caspase-7 (P55210 207-303 limits assumed): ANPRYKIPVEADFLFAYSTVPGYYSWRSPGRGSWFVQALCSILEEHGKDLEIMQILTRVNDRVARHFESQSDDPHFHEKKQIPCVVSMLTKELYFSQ
The nature of assay [16]: HepG2 cell cytotoxicity, dose response, cytotoxicity control, plate reader, cherry-pick, antagonist series (AID 743416). The assay is classed as functional, cell-based.
The nature of assay [17]: EDANS-DABCYL fluorescence interference, concentration series, dose response, artefact control for kallikrein-7 zymogen activator project, biochemical, fluorescence intensity, triplicate (AID 720493).
Assay [18] addresses Kallikrein-7 (Homo sapiens, UniProt P49862). Briefly: Fluorescence Intensity-based biochemical primary high throughput dose response assay to identify activators of kallikrein-7 (K7) zymogen.

Calls of active or inactive are those of the source.

Chain of Kallikrein-7 (P49862 whole entry): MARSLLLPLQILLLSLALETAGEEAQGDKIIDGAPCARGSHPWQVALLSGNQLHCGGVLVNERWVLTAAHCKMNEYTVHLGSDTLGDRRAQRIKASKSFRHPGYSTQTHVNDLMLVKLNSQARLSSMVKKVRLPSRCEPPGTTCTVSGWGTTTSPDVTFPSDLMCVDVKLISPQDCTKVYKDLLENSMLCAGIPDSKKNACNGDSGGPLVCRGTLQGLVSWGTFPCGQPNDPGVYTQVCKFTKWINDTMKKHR

With `COc1cccc(-n2c(CN3CCNCC3)nc3ccc([N+](=O)[O-])cc3c2=O)c1`, the IC50 in assay [1] and in assay [2] was 10.4 µM (active) each time.
Turning to `O=C(/C=C/c1ccco1)Nc1cccnc1Cl`, the AC50 in assay [3] was > 52 µM (inactive).
Regarding `CCCCN1C=C(C(=O)OC)C(c2ccccc2Cl)C(C(=O)OC)=C1`, the AC50 in assay [4] is 2.12 µM (active).
Turning to `CN(C)CCCNc1cc(O)c2ncccc2c1`, the IC50 was 15.8 µM (active) in [5] and 4.57 µM (active) in [9]. Moreover, the AC50 in assay [6] was 20.2 µM (active); in assay [7], 1.15 µM (active); in assay [8] it was 42 µM (active); in [10] it was 25.3 µM (active); in [11] it was 32 µM (active); in [12] it was > 70 µM (inactive). For the same molecule, the half-maximal activity concentration (AC50) is 8.67 µM (active) in assay [13], 3.64 µM (active) in assay [14], 7.56 µM (active) in assay [15] and 7.93 µM (active) in [16].
Regarding `CCC1CCCCN1Cc1c(O)ccc2c(=O)c(-c3ccccc3)coc12` (stereo not drawn), the figures for the EC50 in assay [17] and in assay [18] were > 7.72 µM (active) and > 69.5 µM (inactive), respectively.

The values above are taken from ChEMBL document CHEMBL1201862, “PubChem BioAssay data set” (2004).
